Source: ChEMBL document CHEMBL5252612, “A novel selective estrogen receptor degrader induces cell cycle arrest in breast cancer via ERα degradation and the autophagy-lysosome pathway” (Bioorg Med Chem, 2023)
Active and inactive are the calls of the source. The rule behind the calls is not given here.

What was measured:
T47D [1] = assay: Induction of autophagy in human T47D cells overexpressing ESR1 assessed as increase in autophagosome number by measuring LC3 puncta formation by immunofluorescence assay; format: functional, cell-based
T47D [2] = assay: Induction of cell cycle arrest in human T47D cells assessed as proportion of cells at G2 phase at 10 uM incubated for 24 hrs by flow cytometry (reference value: 17%); format: functional
T47D [3] = assay: Induction of cell cycle arrest in human T47D cells transfected with empty vector assessed as proportion of cells at G1 phase at 10 uM incubated for 24 hrs by flow cytometry (reference value: 17.1%); format: functional
T47D [4] = assay: Induction of cell cycle arrest in human T47D cells assessed as proportion of cells at S phase at 10 uM incubated for 24 hrs in presence of autophagy inhibitor, 3-MA by flow cytometry (reference value: 21.4%); format: functional
T47D [5] = assay: Induction of cell cycle arrest in human T47D cells assessed as proportion of cells at S phase at 5 uM incubated for 24 hrs by flow cytometry (reference value: 15.3%); format: functional
T47D [6] = assay: Induction of autophagy in human T47D cells assessed as increase in LC3 puncta formation at 1 to 10 uM incubated for 24 hrs in presence of chloroquine by immunofluorescence assay; format: functional, cell-based; settings: dose 1-10 µM
MCF7 [7] = assay: Induction of cell cycle arrest in human MCF7 cells assessed as proportion of cells at G2 phase at 5 uM incubated for 24 hrs by flow cytometry (reference value: 25.5%); format: functional
T47D [8] = assay: Induction of autophagy in human T47D cells assessed as increase in LC3 protein expression at 5 to 10 uM incubated for 24 hrs by western blot analysis; format: functional, cell-based; settings: dose 5-10 µM
T47D [9] = assay: Induction of cell cycle arrest in human T47D cells assessed as proportion of cells at S phase at 1 uM incubated for 24 hrs by flow cytometry (reference value: 15.3%); format: functional
MCF7 [10] = assay: Induction of apoptosis in human MCF7 cells at 10 uM incubated for 48 hrs by TUNEL assay; format: functional, cell-based
[11] = molecular target: T1, Estrogen receptor (Homo sapiens) (UniProt P03372); assay: Induction of ER-alpha degradation in human T47D cells assessed as decrease in ER-alpha protein expression in presence of autophagy inhibitor, CQ by western blot analysis; format: cell-based
T1 sequence (whole entry): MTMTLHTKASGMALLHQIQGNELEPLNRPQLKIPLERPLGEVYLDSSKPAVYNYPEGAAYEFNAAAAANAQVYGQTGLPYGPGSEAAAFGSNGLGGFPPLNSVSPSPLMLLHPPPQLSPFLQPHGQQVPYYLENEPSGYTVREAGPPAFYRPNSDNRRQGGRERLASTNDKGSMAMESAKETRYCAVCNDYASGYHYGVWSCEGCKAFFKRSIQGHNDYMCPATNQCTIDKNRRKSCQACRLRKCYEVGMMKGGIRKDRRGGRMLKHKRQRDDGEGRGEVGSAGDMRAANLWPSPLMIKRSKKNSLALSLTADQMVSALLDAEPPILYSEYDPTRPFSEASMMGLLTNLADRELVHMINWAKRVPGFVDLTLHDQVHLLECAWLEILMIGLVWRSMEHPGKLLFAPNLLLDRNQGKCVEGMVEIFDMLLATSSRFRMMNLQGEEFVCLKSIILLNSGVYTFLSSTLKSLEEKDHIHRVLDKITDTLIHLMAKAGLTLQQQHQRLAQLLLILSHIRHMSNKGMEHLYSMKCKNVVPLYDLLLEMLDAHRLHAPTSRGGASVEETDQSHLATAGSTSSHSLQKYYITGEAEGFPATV

T47D [12] = assay: Induction of autophagy in human T47D cells assessed as increase in LC3 puncta formation at 1 to 10 uM incubated for 24 hrs by immunofluorescence assay; format: functional, cell-based; settings: dose 1-10 µM
T47D [13] = assay: Induction of cell cycle arrest in human T47D cells assessed as proportion of cells at G2 phase at 10 uM incubated for 24 hrs in presence of autophagy inhibitor, 3-MA by flow cytometry (reference value: 18.2%); format: functional
T47D [14] = assay: Inhibition of colony formation in human T47D cells at 1 to 5 uM incubated for 14 days by crystal violet staining based analysis; format: functional, cell-based; settings: dose 1-5 µM, time 14.0 day
T47D [15] = assay: Induction of autophagy in human T47D cells assessed as increase in LC3 protein expression at 5 to 10 uM incubated for 24 hrs in presence of chloroquine by western blot analysis; format: functional, cell-based; settings: dose 5-10 µM
MCF7 [16] = assay: Antitumor activity against human MCF7 cells xenografted in BALB/c nude mouse assessed as reduction in Ki67 expression in tumor at 2 to 4 mg/kg, ip administered every other day by immunohistochemistry; format: functional, organism-based; settings: dose 2-4 mg/kg
T47D [17] = assay: Induction of cell cycle arrest in human T47D cells transfected with empty vector assessed as proportion of cells at G2 phase at 10 uM incubated for 24 hrs by flow cytometry (reference value: 53%); format: functional
MCF7 [18] = assay: Induction of apoptosis and necrosis in human MCF7 cells incubated for 48 hrs by AnnexinV-FITC/PI staining based flow cytometry (reference value: 7.03%); format: functional
MCF7 [19] = assay: Induction of cell cycle arrest in human MCF7 cells assessed as proportion of cells at G1 phase at 1 uM incubated for 24 hrs by flow cytometry (reference value: 46.3%); format: functional
[20] = Downregulation of MYC expression in human T47D cells at 10 uM incubated for 12 hrs by RNA-seq analysis; format: functional
[21] = molecular target: T1, Estrogen receptor (Homo sapiens); assay: Induction of ER-alpha degradation in human T47D cells assessed as decrease in ER-alpha protein expression in presence of autophagy inhibitor, 3-MA of by western blot analysis; format: cell-based
T47D [22] = assay: Induction of cell cycle arrest in human T47D cells transfected with empty vector assessed as proportion of cells at S phase at 10 uM incubated for 24 hrs by flow cytometry (reference value: 25.9%); format: functional
MCF7 [23] = assay: Induction of cell cycle arrest in human MCF7 cells assessed as proportion of cells at G1 phase at 5 uM incubated for 24 hrs by flow cytometry (reference value: 46.3%); format: functional
T47D [24] = assay: Induction of apoptosis and necrosis in human T47D cells incubated for 48 hrs by AnnexinV-FITC/PI staining based flow cytometry (reference value: 3.73%); format: functional
[25] = Induction of cell cycle arrest in tamoxifen-resistant human LCC2 cells assessed as proportion of cells at G1 phase at 1 uM by flow cytometry (reference value: 47.4%); format: functional
T47D [26] = assay: Induction of apoptosis and necrosis in human T47D cells assessed as live cells at 10 uM incubated for 48 hrs by AnnexinV-FITC/PI staining based flow cytometry (reference value: 96.26%); format: functional
T47D [27] = assay: Induction of autophagy in human T47D cells assessed as downregulation of MYC protein expression at 5 to 10 uM incubated for 24 hrs in presence of autophagy inhibitor, CQ by western blot analysis; format: functional, cell-based; settings: dose 5-10 µM
[28] = Induction of cell cycle arrest in tamoxifen-resistant human LCC2 cells assessed as proportion of cells at G2 phase at 5 uM by flow cytometry (reference value: 23.7%); format: functional
T47D [29] = assay: Induction of cell cycle arrest in human T47D cells assessed as proportion of cells at G1 phase at 5 uM incubated for 24 hrs by flow cytometry (reference value: 66.6%); format: functional

## COc1ccc(N(CC(F)(F)F)S(=O)(=O)C2CC3OC2C(c2ccc(OCCN4CCCC4)cc2)=C3c2ccc(O)cc2)cc1 (centres undefined)
T47D [1]
  Activity: Active
T47D [2]
  Activity: 16.9%
T47D [3]
  Activity: 36%
T47D [4]
  Activity: 14.5%
T47D [5]
  Activity: 9.6%
T47D [6]
  Activity: Active
MCF7 [7]
  Activity: 16.5%
T47D [8]
  Activity: Active
T47D [9]
  Activity: 9.47%
MCF7 [10]
  Activity: Active
[11]
  Activity: Active
T47D [12]
  Activity: Active
T47D [13]
  Activity: 19.3%
T47D [14]
  inhibition: Active
T47D [15]
  Activity: Active
MCF7 [16]
  Activity: Active
T47D [17]
  Activity: 33.7%
MCF7 [18]
  Activity: 46.45%
MCF7 [19]
  Activity: 63.7%
[20]
  fold change (FC): -1.037
[21]
  Activity: Active
T47D [22]
  Activity: 22.8%
MCF7 [23]
  Activity: 65.1%
T47D [24]
  Activity: 21.43%
[25]
  Activity: 63.9%
T47D [26]
  Activity: 93.26%
T47D [27]
  Activity: inactive
[28]
  Activity: 14.5%
T47D [29]
  Activity: 76.8%
